Assay results reported in US9944678B2, “Immunomodulators” (BRISTOL-MYERS SQUIBB COMPANY, priority 2014, dated 2018).
Starred links: 1 amine or outer side, 2 acyl side, 3 side chain; linkers in the order of their positions; H or OH if unused. Positions of bridges follow the written chain, without caps; N, C: chain ends. Non-standard residues stand in square brackets, D forms with d. Residues, ends and D or L forms follow the SMILES beside them. ξ: configuration not given here. X5 = NC(=O)CNC(=O)[C@H](CSCC(=O)[*:1])CC(=O)C1(N[*:2])CC1; X1 = C=C[C@H]1C[C@@]1(N[*:1])C(=O)[*:2]; X2 = CC[C@H]1C[C@@]1(N[*:1])C(=O)[*:2]; X4 = C[C@H]1C[C@@]1(N[*:1])C(=O)[*:2]; Bta = N[C@@H](Cc1csc2ccccc12)C(=O)O; X3 = C[C@H]1CC1(N[*:1])C(=O)[*:2]; Hyp = O=C(O)[C@@H]1C[C@@H](O)CN1; Aic = NC1(C(=O)O)Cc2ccccc2C1; NMeNle = CCCC[C@H](NC)C(=O)O; hLeu = CC(C)CC[C@H](N)C(=O)O; NMeA = CN[C@@H](C)C(=O)O; Dab = NCC[C@H](N)C(=O)O; Dap = NC[C@H](N)C(=O)O; Ac3c = NC1(C(=O)O)CC1; Aib = CC(C)(N)C(=O)O; ξC = NC(CS)C(=O)O

target: T1, PD-1-Ig binding to PD-L1-TVMV-His (PD-L1-His) (Homo sapiens, UniProt Q9NZQ7); test: PD-1/PD-L1 Homogenous Time-Resolved Fluorescence (HTRF) binding assay; conditions: PD-1-Ig/PD-L1-His binding; numeric values
T1 construct: hPDL1(19-239)-TVMV-His; TVMV protease cleavage site (C); made in house; host or cells: HEK293T cells
T1 sequence (Q9NZQ7 with tags, fused parts or gaps): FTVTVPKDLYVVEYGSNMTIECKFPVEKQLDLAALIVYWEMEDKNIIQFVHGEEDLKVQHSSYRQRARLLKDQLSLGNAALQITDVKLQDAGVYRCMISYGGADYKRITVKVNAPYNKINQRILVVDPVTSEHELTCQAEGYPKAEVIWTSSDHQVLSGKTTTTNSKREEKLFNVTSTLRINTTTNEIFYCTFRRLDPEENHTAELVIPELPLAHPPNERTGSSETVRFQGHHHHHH
Source text: The ability of the macrocyclic peptides of the present disclosure to bind to PD-L1 was investigated using a PD-1/PD-L1 Homogenous Time-Resolved Fluorescence (HTRF) binding assay.
Homogenous Time-Resolved Fluorescence (HTRF) Assays of Binding of Soluble PD-1 to Soluble PD-L1. Soluble PD-1 and soluble PD-L1 refers to proteins with carboxyl-end truncations that remove the transmembrane-spanning regions and are fused to heterologous sequences, specifically the Fc portion of the human immunoglobuling G sequence (Ig) or the hexahistidine epitope tag (His). All binding studies were performed in an HTRF assay buffer consisting of dPBS supplemented with 0.1% (w/v) bovine serum albumin and 0.05% (v/v) Tween-20. For the PD-1-Ig/PD-L1-His binding assay, inhibitors were pre-incubated with PD-L1-His (10 nM final) for 15 m in 4 μl of assay buffer, followed by addition of PD-1-Ig (20 nM final) in 1 μl of assay buffer and further incubation for 15 m. PD-L1 fusion proteins from either human, cynomologous macaques, mouse, or other species were used. HTRF detection was achieved using europium crypate-labeled anti-Ig monoclonal antibody (1 nM final) and allophycocyanin (APC) labeled anti-His monoclonal antibody (20 nM final). Antibodies were diluted in HTRF detection buffer and 5 μl was dispensed on top of binding reaction. The reaction was allowed to equilibrate for 30 minutes and signal (665 nm/620 nm ratio) was obtained using an EnVision fluorometer. Additional binding assays were established between PD-1-Ig/PD-L2-His (20 and 5 nM, respectively), CD80-His/PD-L1-Ig (100 and 10 nM, respectively) and CD80-His/CTLA4-Ig (10 and 5 nM, respectively). Binding/competition studies between biotinylated Compound No. 71 and human PD-L1-His were performed as follows. Macrocyclic peptide inhibitors were pre-incubated with PD-L1-His (10 nM final) for 60 minutes in 4 μl of assay buffer followed by addition of biotinylated Compound No. 71 (0.5 nM final) in 1 μl of assay buffer. Binding was allowed to equilibrate for 30 minutes followed by addition of europium crypated labeled Streptavidin (2.5 pM final) and APC-labeled anti-His (20 nM final) in 5 μl of HTRF buffer. The reaction was allowed to equilibrate for 30 m and signal (665 nm/620 nm ratio) was obtained using an EnVision fluorometer.
Recombinant Proteins. Carboxyl-truncated human PD-1 (amino acids 25-167) with a C-terminal human Ig epitope tag [hPD-1 (25-167)-3S-IG] and human PD-L1 (amino acids 18-239) with a C-terminal His epitope tag [hPD-L1(19-239)-tobacco vein mottling virus protease cleavage site (TVMV)-His] were expressed in HEK293T cells and purified sequentially by recombinant Protein A affinity chromatography and size exclusion chromatography. Human PD-L2-His (Sino Biologicals), CD80-His (Sino Biologicals), CTLA4-Ig (RnD Systems) were all obtained through commercial sources.
Ranges are as follows: A=0.10-10 μM; B=0.01-0.099 μM; C=0.004-0.0099 μM.

IC50 [nM] | Structure (SMILES)
20 | CCCC[C@H]1C(=O)N(C)[C@@H](CCCC)C(=O)N[C@@H](CC(C)C)C(=O)N[C@H](C(=O)NCC(N)=O)CSCC(=O)N[C@@H](Cc2ccc(O)cc2)C(=O)N(C)[C@@H](C)C(=O)N[C@@H](CC(N)=O)C(=O)N2CCC[C@H]2C(=O)NC(C)(C)C(=O)N[C@@H](CC(C)C)C(=O)N2C[C@H](O)C[C@H]2C(=O)N[C@@H](Cc2c[nH]c3ccccc23)C(=O)N[C@@H](CCN)C(=O)N[C@@H](Cc2c[nH]c3ccccc23)C(=O)N1C [Example 9011] ({CH2CO}-Y[NMeA]NP[Aib]L[Hyp]W[Dab]W[NMeNle][NMeNle]LCG-NH2; thioether N-14)
200 | C=C[C@H]1C[C@]12NC(=O)[C@H](CC(N)=O)NC(=O)[C@H](C)N(C)C(=O)[C@H](Cc1ccc(O)cc1)NC(=O)CSCC(C(=O)NCC(N)=O)NC(=O)[C@H](CCCNC(=N)N)NC(=O)[C@H](CCCC)N(C)C(=O)[C@H](CCCC)N(C)C(=O)[C@H](Cc1csc3ccccc13)NC(=O)[C@H](CO)NC(=O)[C@H](Cc1c[nH]c3ccccc13)NC(=O)[C@@H]1C[C@@H](O)CN1C(=O)[C@H](CC(C)C)NC(=O)[C@H](Cc1cnc[nH]1)NC2=O (stereo partly shown) [Example 10002] ({CH2CO}-Y[NMeA]N[X1]HL[Hyp]WS[Bta][NMeNle][NMeNle]R[ξC]G-NH2; thioether N-14)
3620 | CCCC[C@H]1C(=O)N(C)[C@@H](CCCC)C(=O)N[C@@H](CC(C)C)C(=O)N[C@H](C(=O)NCC(N)=O)CSCC(=O)N[C@@H](Cc2ccc(O)cc2)C(=O)N(C)[C@@H](C)C(=O)N[C@@H](CC(N)=O)C(=O)N2CCC[C@H]2C(=O)N[C@@H](CN)C(=O)N[C@@H](CC(C)C)C(=O)N2C[C@H](O)C[C@H]2C(=O)N[C@@H](Cc2c[nH]c3ccccc23)C(=O)NC2(CC2)C(=O)N[C@@H](Cc2c[nH]c3ccccc23)C(=O)N1C [Example 9008] ({CH2CO}-Y[NMeA]NP[Dap]L[Hyp]W[Ac3c]W[NMeNle][NMeNle]LCG-NH2; thioether N-14)
1000 | CCCC[C@H]1C(=O)N(C)[C@@H](CCCC)C(=O)N[C@@H](CCCNC(=N)N)C(=O)NC(C(=O)NCC(N)=O)CSCC(=O)N[C@@H](Cc2ccc(O)cc2)C(=O)N(C)[C@@H](C)C(=O)N[C@@H](CC(N)=O)C(=O)N2CCC[C@H]2C(=O)N[C@@H](Cc2cnc[nH]2)C(=O)N[C@@H](CC(C)C)C(=O)NC2(C[C@@H]2C)C(=O)N[C@@H](Cc2c[nH]c3ccccc23)C(=O)N[C@@H](CO)C(=O)N[C@@H](Cc2csc3ccccc23)C(=O)N1C (stereo partly shown) [Example 10005] ({CH2CO}-Y[NMeA]NPHL[X3]WS[Bta][NMeNle][NMeNle]R[ξC]G-NH2; thioether N-14)

same assay, conditions: PD-1-Ig/PD-L1-His binding; values given as range classes

IC50 [nM] | Structure (SMILES)
100 to 10000 | CCCC[C@H]1C(=O)N(C)[C@@H](CCCC)C(=O)N[C@@H](CCCNC(=N)N)C(=O)NC(C(=O)NCC(N)=O)CSCC(=O)N[C@@H](Cc2ccc(O)cc2)C(=O)N(C)[C@@H](C)C(=O)N[C@@H](CC(N)=O)C(=O)N[C@]2(C[C@@H]2CC)C(=O)N[C@@H](Cc2cnc[nH]2)C(=O)N[C@@H](CC(C)C)C(=O)N2C[C@H](O)C[C@H]2C(=O)N[C@@H](Cc2c[nH]c3ccccc23)C(=O)N[C@@H](CO)C(=O)N[C@@H](Cc2c[nH]c3ccccc23)C(=O)N1C (stereo partly shown) [Example 10009] ({CH2CO}-Y[NMeA]N[X2]HL[Hyp]WSW[NMeNle][NMeNle]R[ξC]G-NH2; thioether N-14)
100 to 10000 | CCCC[C@H]1C(=O)N(C)[C@@H](CCCC)C(=O)N[C@@H](CCCNC(=N)N)C(=O)NC(C(=O)NCC(N)=O)CSCC(=O)N[C@@H](Cc2ccc(O)cc2)C(=O)N(C)[C@@H](C)C(=O)N[C@@H](CC(N)=O)C(=O)N2C[C@H](O)C[C@H]2C(=O)N[C@@H](Cc2cnc[nH]2)C(=O)N[C@@H](CC(C)C)C(=O)NC2(C[C@@H]2C)C(=O)N[C@@H](Cc2c[nH]c3ccccc23)C(=O)N[C@@H](CO)C(=O)N[C@@H](Cc2c[nH]c3ccccc23)C(=O)N1C (stereo partly shown) [Example 10007]
100 to 10000 | CCCC[C@H]1C(=O)N(C)[C@@H](CCCC)C(=O)N[C@@H](CC(C)C)C(=O)N[C@H](C(=O)NCC(N)=O)CSCC(=O)N[C@@H](Cc2ccc(O)cc2)C(=O)N(C)[C@@H](C)C(=O)N[C@@H](CC(N)=O)C(=O)N2CCC[C@H]2C(=O)N[C@@H](CN)C(=O)NC(C)(C)C(=O)N2C[C@H](O)C[C@H]2C(=O)N[C@@H](Cc2c[nH]c3ccccc23)C(=O)N[C@@H](CCN)C(=O)N[C@@H](Cc2c[nH]c3ccccc23)C(=O)N1C [Example 9009] ({CH2CO}-Y[NMeA]NP[Dap][Aib][Hyp]W[Dab]W[NMeNle][NMeNle]LCG-NH2; thioether N-14)
100 to 10000 | CCCC[C@H]1C(=O)N(C)[C@@H](CCCC)C(=O)N[C@@H](CCCNC(=N)N)C(=O)N[C@H](C(=O)NCC(N)=O)CSCC(=O)N[C@@H](Cc2ccccc2)C(=O)N(C)[C@@H](C)C(=O)N[C@@H](CC(N)=O)C(=O)N2CCC[C@H]2C(=O)N[C@@H](Cc2cnc[nH]2)C(=O)N[C@@H](CC(C)C)C(=O)NC(C)(C)C(=O)N[C@@H](Cc2c[nH]c3ccccc23)C(=O)N[C@@H](CO)C(=O)N[C@@H](Cc2c[nH]c3ccccc23)C(=O)N1C [Example 1002]
100 to 10000 | C=C[C@H]1C[C@]12NC(=O)[C@H](CC(N)=O)NC(=O)[C@H](C)N(C)C(=O)[C@H](Cc1ccc(O)cc1)NC(=O)CSCC(C(=O)NCC(N)=O)NC(=O)[C@H](CCCNC(=N)N)NC(=O)[C@H](CCCC)N(C)C(=O)[C@H](CCCC)N(C)C(=O)[C@H](Cc1csc3ccccc13)NC(=O)[C@H](CO)NC(=O)[C@H](Cc1c[nH]c3ccccc13)NC(=O)[C@@H]1CCCN1C(=O)[C@H](CC(C)C)NC(=O)[C@H](Cc1cnc[nH]1)NC2=O (stereo partly shown) [Example 10001] ({CH2CO}-Y[NMeA]N[X1]HLPWS[Bta][NMeNle][NMeNle]R[ξC]G-NH2; thioether N-14)
10 to 99 | CCCC[C@H]1C(=O)N(C)[C@@H](CCCC)C(=O)N[C@@H](CCCNC(=N)N)C(=O)NC(C(=O)NCC(N)=O)CSCC(=O)N[C@@H](Cc2ccc(O)cc2)C(=O)NC(C)(C)C(=O)N[C@@H](CC(N)=O)C(=O)N2CCC[C@H]2C(=O)N[C@@H](Cc2c[nH]cn2)C(=O)N[C@@H](CC(C)C)C(=O)N2C[C@H](O)C[C@H]2C(=O)N[C@@H](Cc2c[nH]c3ccccc23)C(=O)N[C@@H](CO)C(=O)N[C@@H](Cc2c[nH]c3ccccc23)C(=O)N1C (stereo partly shown) [Example 9004]
10 to 99 | CCCC[C@H]1C(=O)N(C)[C@@H](CCCC)C(=O)N[C@@H](CC(C)C)C(=O)N[C@H](C(=O)NCC(N)=O)CSCC(=O)N[C@@H](Cc2ccc(O)cc2)C(=O)N(C)[C@@H](C)C(=O)N[C@@H](CC(N)=O)C(=O)N2CCC[C@H]2C(=O)NC2(Cc3ccccc3C2)C(=O)N[C@@H](CC(C)C)C(=O)N2C[C@H](O)C[C@H]2C(=O)N[C@@H](Cc2c[nH]c3ccccc23)C(=O)N[C@@H](CCN)C(=O)N[C@@H](Cc2c[nH]c3ccccc23)C(=O)N1C [Example 9018] ({CH2CO}-Y[NMeA]NP[Aic]L[Hyp]W[Dab]W[NMeNle][NMeNle]LCG-NH2; thioether N-14)
100 to 10000 | CCCC[C@H]1C(=O)N(C)[C@@H](CCCC)C(=O)NC2(CC2)C(=O)C[C@H](C(=O)NCC(N)=O)CSCC(=O)N[C@@H](Cc2ccccc2)C(=O)N(C)[C@@H](C)C(=O)N[C@@H](CC(N)=O)C(=O)N2CCC[C@H]2C(=O)N[C@@H](Cc2c[nH]cn2)C(=O)N[C@@H](CCC(C)C)C(=O)NCC(=O)N[C@@H](Cc2c[nH]c3ccccc23)C(=O)N[C@@H](CO)C(=O)N[C@@H](Cc2c[nH]c3ccccc23)C(=O)N1C [Example 5001] (F[NMeA]NPH[hLeu]GWSW[NMeNle][NMeNle]; linker N-C via X5)
10 to 99 | CCCC[C@H]1C(=O)N(C)[C@@H](CCCC)C(=O)N[C@@H](CCCNC(=N)N)C(=O)NC(C(=O)NCC(N)=O)CSCC(=O)N[C@@H](Cc2ccc(O)cc2)C(=O)N(C)[C@@H](C)C(=O)N[C@@H](CC(N)=O)C(=O)N[C@]2(C[C@@H]2C)C(=O)N[C@@H](Cc2cnc[nH]2)C(=O)N[C@@H](CC(C)C)C(=O)N2C[C@H](O)C[C@H]2C(=O)N[C@@H](Cc2c[nH]c3ccccc23)C(=O)N[C@@H](CO)C(=O)N[C@@H](Cc2csc3ccccc23)C(=O)N1C (stereo partly shown) [Example 10004] ({CH2CO}-Y[NMeA]N[X4]HL[Hyp]WS[Bta][NMeNle][NMeNle]R[ξC]G-NH2; thioether N-14)
